# In US20060093617A1, “Peptides for inducing a CTL and/or HTL response to hepatitis C virus” (Innogenetics, N.V., priority 2004, published 2006):
# Where a SMILES comes first, the peptide text is derived from it.
# Tests used:
# DRB1*0301 = molecular target: T1, DRB1*0301 (Homo sapiens, UniProt P01903+P01911, A100K/A102G/A103R/A169T/F55Y/I96L/K41T/L162R/M171V/P40S/Q125H/Q178H/Q39Y/R42S/S66N/T106N/T262R/W38E/Y61H); assay: Competition binding assay using soluble HLA class II
# T1 construct: endogenous in cells; HLA-DR was extracted from cell lysates on an LB3.1 antibody column
# B*3501 = B*3501 (Homo sapiens, UniProt P01889, A329T/A93T/A95T/C349S/D201E/D98Y/E176V/E187L/E204Q/E69T/I218V/K202T/L119I/Q94N/R155S/R180L/S121R/S35A/S48A/T118I/V127L/V306I/V36M/Y140S/Y91F); assay: Competition binding assay using soluble HLA class I; conditions: for Ki: HLA-B3501 section
# B*0702 = molecular target: T2, B*0702 (Homo sapiens, UniProt P01889); assay: as above
# T2 construct: endogenous in cells
# HLA-Cw06 = molecular target: T3, HLA-Cw06 (Homo sapiens, UniProt P10321, A176E/A330V/C350S/L171W/L180W/L218V/M285V/M309V/M331V/N104K/P208H/Q277E/Q291P/R121W/R243W/S101N/S123Y/S297R/T329A/T363A/V319A/V328M); assay: HLA class I competition cell-based binding assay
# T3 construct: endogenous in cells
# HLA-Cw07 = molecular target: T4, HLA-Cw07 (Homo sapiens, UniProt P10321); assay: HLA class I competition cell-based binding assay
# T4 construct: endogenous in cells
# DRB1*0101 = molecular target: T5, DRB1*0101 (Homo sapiens, UniProt P01903+P01911, A100R/D57E/F55L/F60I/F76Y/I96L/L162R/M171V/P40L/Q125E/R42F/V115G/Y59C); assay: Competition binding assay using soluble HLA class II
# T5 construct: endogenous in cells; host or cells: cell lysate
# HLA-A03 = molecular target: T6, HLA-A03 (Homo sapiens, UniProt P04439); assay: Competition binding assay using soluble HLA class I; conditions: HLA-A1101 section; read-out: binds A0301 (asterisk in Ki column)
# T6 construct: endogenous in cells
smiles,measurement,setting,value
CC(C)C[C@H](NC(=O)[C@H](CCCNC(=N)N)NC(=O)[C@@H]1CCCN1C(=O)CN)C(=O)NCC(=O)N[C@H](C(=O)N[C@@H](CCCNC(=N)N)C(=O)N[C@@H](C)C(=O)N[C@H](C(=O)N[C@@H](CCCNC(=N)N)C(=O)N[C@@H](CCCCN)C(=O)N[C@H](C(=O)N[C@@H](CO)C(=O)N[C@@H](CCC(=O)O)C(=O)N[C@@H](CCCNC(=N)N)C(=O)O)[C@@H](C)O)[C@@H](C)O)C(C)C (H-GPRLGVRATRKTSER-OH; N-terminus and C-terminus assumed),IC50,DRB1*0301,18.9 µM
CC(C)C[C@H](NC(=O)[C@H](CCCNC(=N)N)NC(=O)[C@@H](NC(=O)[C@H](CO)NC(=O)[C@@H](NC(=O)[C@H](CCC(=O)O)NC(=O)[C@H](C)NC(=O)[C@@H]1CCCN1C(=O)[C@@H](N)[C@@H](C)O)[C@@H](C)O)C(C)C)C(=O)O,IC50,"B*3501; Table 18, HLA-B7 binding peptides",1640 nM
same,IC50,B*0702,0.375 µM
same,Ki,"B*0702; Ki (nM), HLA-B0702 section",375 nM
same,Ki,"B*0702; binds B0702 with Ki < 1000 nM (asterisk), asterisk in the HLA-B3501 section",< 1000 nM
CC[C@H](C)[C@H](N)C(=O)N[C@@H](CCCNC(=N)N)C(=O)N[C@@H](CO)C(=O)N[C@@H](CC(C)C)C(=O)N[C@H](C(=O)N[C@@H](CCC(=O)O)C(=O)N[C@@H](CCCNC(=N)N)C(=O)N[C@@H](CC(C)C)C(=O)N[C@@H](Cc1ccc(O)cc1)C(=O)O)[C@@H](C)O,Ki,HLA-Cw06,0.318 µM
same,Ki,HLA-Cw07,0.025 µM
CSCC[C@H](NC(=O)[C@H](CC(C)C)NC(=O)[C@H](C)NC(=O)[C@H](CC(=O)O)NC(=O)[C@@H](NC(=O)[C@H](C)NC(=O)[C@@H](NC(=O)[C@@H](NC(=O)[C@@H](NC(=O)[C@@H](N)C(C)C)C(C)C)C(C)C)C(C)C)[C@@H](C)O)C(=O)N[C@H](C(=O)NCC(=O)N[C@@H](Cc1ccc(O)cc1)C(=O)N[C@H](C(=O)NCC(=O)O)[C@@H](C)O)[C@@H](C)O,IC50,DRB1*0301,0.093 µM
N=C(N)NCCC[C@H](NC(=O)[C@H](CCC(N)=O)NC(=O)[C@@H](N)CC(=O)O)C(=O)N1CCC[C@H]1C(=O)N[C@@H](Cc1ccc(O)cc1)C(=O)N[C@@H](CS)C(=O)N[C@@H](Cc1c[nH]c2ccccc12)C(=O)N[C@@H](Cc1c[nH]cn1)C(=O)N[C@@H](Cc1ccc(O)cc1)C(=O)O (H-DQRPYCWHY-OH; N-terminus and C-terminus assumed),Ki,HLA-Cw07,0.71 µM
CC[C@H](C)[C@H](NC(=O)[C@@H](NC(=O)[C@H](CO)NC(=O)[C@@H](NC(=O)[C@H](CC(=O)O)NC(=O)[C@H](CC(C)C)NC(=O)CNC(=O)[C@H](CCCNC(=N)N)NC(=O)[C@H](Cc1ccc(O)cc1)NC(=O)[C@@H](N)Cc1ccc(O)cc1)C(C)C)C(C)C)C(=O)O (H-YYRGLDVSVI-OH),Ki,HLA-Cw07,0.087 µM
CSCC[C@H](NC(=O)CNC(=O)[C@H](CCC(=O)O)NC(=O)[C@H](CC(N)=O)NC(=O)CNC(=O)[C@H](Cc1ccc(O)cc1)NC(=O)[C@@H](N)CC(C)C)C(=O)NCC(=O)N[C@@H](Cc1c[nH]c2ccccc12)C(=O)N[C@@H](C)C(=O)O (H-LYGNEGMGWA-OH; N-terminus and C-terminus assumed),Ki,HLA-Cw07,5.11 µM
CC(C)C[C@H](NC(=O)[C@@H](NC(=O)CNC(=O)[C@H](CO)NC(=O)[C@H](C)NC(=O)[C@H](CCCNC(=N)N)NC(=O)[C@H](CS)NC(=O)[C@H](CCCNC(=N)N)NC(=O)[C@H](CCCNC(=N)N)NC(=O)[C@@H](N)Cc1ccc(O)cc1)C(C)C)C(=O)O (H-YRRCRASGVL-OH),Ki,HLA-Cw07,0.083 µM
CSCC[C@H](NC(=O)[C@H](CCCNC(=N)N)NC(=O)[C@H](Cc1c[nH]cn1)NC(=O)CN)C(=O)N[C@@H](C)C(=O)N[C@@H](Cc1c[nH]c2ccccc12)C(=O)N[C@@H](CC(=O)O)C(=O)N[C@@H](CCSC)C(=O)N[C@@H](CCSC)C(=O)N[C@@H](CCSC)C(=O)N[C@@H](CC(N)=O)C(=O)N[C@@H](Cc1c[nH]c2ccccc12)C(=O)N[C@@H](CO)C(=O)N1CCC[C@H]1C(=O)N[C@H](C(=O)O)[C@@H](C)O,IC50,DRB1*0101,0.183 µM
same,IC50,DRB1*0301,0.919 µM
CC(C)C[C@H](NC(=O)[C@H](C)NC(=O)CNC(=O)[C@H](C)NC(=O)[C@@H](NC(=O)CN)C(C)C)C(=O)N[C@H](C(=O)N[C@@H](C)C(=O)N[C@@H](Cc1ccccc1)C(=O)O)C(C)C (H-GVAGALVAF-OH; N-terminus and C-terminus assumed),Ki,HLA-Cw07,6.16 µM
CC(C)C[C@H](NC(=O)[C@H](CC(C)C)NC(=O)[C@@H]1CCCN1C(=O)[C@@H](NC(=O)[C@@H]1CCCN1C(=O)CNC(=O)[C@H](Cc1c[nH]cn1)NC(=O)[C@@H](N)CC(C)C)[C@@H](C)O)C(=O)N[C@@H](Cc1ccc(O)cc1)C(=O)O,Ki,HLA-Cw07,0.031 µM
CC(C)C[C@H](NC(=O)[C@@H](N)Cc1ccc(O)cc1)C(=O)N[C@@H](CC(C)C)C(=O)N1CCC[C@H]1C(=O)N[C@@H](CCCNC(=N)N)C(=O)N[C@@H](CCCNC(=N)N)C(=O)NCC(=O)N1CCC[C@H]1C(=O)N[C@@H](CCCNC(=N)N)C(=O)O (H-YLLPRRGPR-OH),Ki,HLA-A03,< 1 µM
CC[C@H](C)[C@H](NC(=O)[C@@H]1CCCN1C(=O)[C@H](CCC(N)=O)NC(=O)[C@@H](N)CCCNC(=N)N)C(=O)N1CCC[C@H]1C(=O)N[C@@H](CCCCN)C(=O)N[C@@H](C)C(=O)N[C@@H](CCCNC(=N)N)C(=O)N[C@@H](CCCNC(=N)N)C(=O)O (H-RQPIPKARR-OH),Ki,HLA-A03,< 1 µM
CC[C@H](C)[C@H](NC(=O)[C@H](CC(N)=O)NC(=O)[C@H](CCC(N)=O)NC(=O)[C@@H](N)Cc1c[nH]cn1)C(=O)N[C@H](C(=O)N[C@@H](CC(=O)O)C(=O)N[C@H](C(=O)N[C@@H](CCC(N)=O)C(=O)N[C@@H](Cc1ccc(O)cc1)C(=O)O)C(C)C)C(C)C,Ki,HLA-Cw07,14.2 µM
CC[C@H](C)[C@H](NC(=O)[C@H](CC(C)C)NC(=O)[C@H](CCCNC(=N)N)NC(=O)[C@H](C)NC(=O)[C@@H]1CCCN1C(=O)[C@H](CCCCN)NC(=O)[C@H](CCCNC(=N)N)NC(=O)CN)C(=O)N[C@H](C(=O)N[C@@H](Cc1ccccc1)C(=O)O)C(C)C (H-GRKPARLIVF-OH),Ki,HLA-Cw06,8.96 µM
same,Ki,HLA-Cw07,0.753 µM
CC[C@H](C)[C@H](NC(=O)[C@@H]1CCCN1C(=O)[C@H](C)NC(=O)[C@H](CC(C)C)NC(=O)[C@H](CC(C)C)NC(=O)[C@@H](N)CCCNC(=N)N)C(=O)N[C@H](C(=O)N[C@@H](C)C(=O)N[C@@H](Cc1ccc(O)cc1)C(=O)O)[C@@H](C)O,Ki,HLA-Cw07,4.82 µM
CC[C@H](C)[C@H](NC(=O)[C@H](Cc1ccc(O)cc1)NC(=O)[C@@H](N)CCCCN)C(=O)N[C@@H](CCSC)C(=O)N[C@@H](C)C(=O)N[C@@H](CS)C(=O)N[C@@H](CCSC)C(=O)N[C@@H](CO)C(=O)N[C@@H](C)C(=O)O,Ki,HLA-Cw07,7.21 µM
CC[C@H](C)[C@H](NC(=O)[C@@H](N)CC(N)=O)C(=O)N[C@H](C(=O)N[C@@H](CC(=O)O)C(=O)N[C@H](C(=O)N[C@@H](CCC(N)=O)C(=O)N[C@@H](Cc1ccc(O)cc1)C(=O)N[C@@H](CC(C)C)C(=O)N[C@@H](Cc1ccc(O)cc1)C(=O)O)C(C)C)C(C)C,Ki,HLA-Cw07,0.056 µM
CSCC[C@H](N)C(=O)NCC(=O)N[C@@H](CO)C(=O)N[C@@H](CO)C(=O)N[C@@H](Cc1ccc(O)cc1)C(=O)NCC(=O)N[C@@H](Cc1ccccc1)C(=O)N[C@@H](CCC(N)=O)C(=O)N[C@@H](Cc1ccc(O)cc1)C(=O)O,Ki,B*3501,2.61 µM
CC(C)[C@H](NC(=O)[C@H](CCCNC(=N)N)NC(=O)[C@H](C)NC(=O)[C@H](C)NC(=O)[C@H](C)NC(=O)[C@H](CC(=O)O)NC(=O)[C@H](CO)NC(=O)[C@H](CCC(=O)O)NC(=O)[C@@H]1CCCN1C(=O)[C@@H](NC(=O)[C@H](Cc1ccc(O)cc1)NC(=O)[C@H](Cc1c[nH]cn1)NC(=O)[C@@H](NC(=O)[C@@H]1CCCN1)[C@@H](C)O)C(C)C)C(=O)N[C@H](C(=O)O)[C@@H](C)O,IC50,DRB1*0301,4.95 µM
CC[C@H](C)[C@H](NC(=O)[C@H](CCC(N)=O)NC(=O)CNC(=O)CNC(=O)CNC(=O)[C@@H]1CCCN1C(=O)[C@@H](N)Cc1ccccc1)C(=O)N[C@H](C(=O)NCC(=O)O)C(C)C,Ki,B*3501,2.6 µM
CC(C)C[C@H](NC(=O)[C@H](Cc1ccccc1)NC(=O)[C@H](CCCCN)NC(=O)CNC(=O)[C@H](Cc1ccc(O)cc1)NC(=O)[C@@H](NC(=O)[C@H](CO)NC(=O)[C@H](Cc1ccc(O)cc1)NC(=O)[C@@H](N)[C@@H](C)O)[C@@H](C)O)C(=O)O,Ki,HLA-Cw06,4.86 µM
same,Ki,HLA-Cw07,0.239 µM
CC[C@H](C)[C@H](NC(=O)[C@@H]1CCCN1C(=O)[C@@H](NC(=O)[C@H](C)NC(=O)[C@H](CCCCN)NC(=O)CNC(=O)[C@H](Cc1ccc(O)cc1)NC(=O)[C@@H](N)Cc1ccccc1)[C@@H](C)CC)C(=O)N[C@@H](CCC(=O)O)C(=O)N[C@H](C(=O)O)C(C)C,Ki,HLA-Cw06,5.69 µM
same,Ki,HLA-Cw07,0.031 µM
C[C@H](NC(=O)[C@H](CCC(=O)O)NC(=O)[C@@H]1CCCN1C(=O)[C@H](Cc1c[nH]cn1)NC(=O)[C@H](CCCCN)NC(=O)[C@H](CCCNC(=N)N)NC(=O)[C@@H](N)Cc1ccccc1)C(=O)N[C@H](C(=O)N[C@@H](Cc1ccc(O)cc1)C(=O)O)[C@@H](C)O (H-FRKHPEATY-OH; N-terminus and C-terminus assumed),Ki,HLA-Cw07,0.0002 µM
